The target in one test is T1, ERRγ1 (Homo sapiens, UniProt P62508).
T1 sequence (P62508 1-435 isoform P62508-2): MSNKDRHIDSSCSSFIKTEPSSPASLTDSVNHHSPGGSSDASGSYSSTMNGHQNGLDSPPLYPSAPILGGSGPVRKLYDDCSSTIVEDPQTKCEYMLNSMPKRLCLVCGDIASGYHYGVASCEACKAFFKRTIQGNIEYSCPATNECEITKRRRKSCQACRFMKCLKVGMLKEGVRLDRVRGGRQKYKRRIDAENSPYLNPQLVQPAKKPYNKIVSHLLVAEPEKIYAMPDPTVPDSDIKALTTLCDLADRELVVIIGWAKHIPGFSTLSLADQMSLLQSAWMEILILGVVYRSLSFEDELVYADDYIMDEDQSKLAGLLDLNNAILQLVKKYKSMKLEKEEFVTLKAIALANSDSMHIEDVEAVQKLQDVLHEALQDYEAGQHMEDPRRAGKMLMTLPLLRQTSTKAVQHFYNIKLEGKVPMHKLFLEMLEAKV
Conditions: stated as known property; cited from earlier work.

The next test has as its system ERRγ2. Kind of test: Reporter gene assay, ERRγ3 coexisted with ERRγ2, ERE luciferase reporter in CV-1 cells. The class given is cell-based, human. Conditions: FIG. 15. How it is done: The reporter gene assay was performed using CV-1 cells (African green monkey kidney-derived cell line) as hosts. Host cells were transfected with luciferase reporter plasmids and expression plasmids for ERRγ3, ERRγ2, or both. They were then exposed to 4-hydroxytamoxifen at different concentrations (0, 10^−10 to −10^−5 M) for 24 hours, whereupon luciferase activity within the cells was measured.
Transfection was performed as follows: CV-1 cells were suspended at 2×10^5 cells/2.5 ml in DMEM medium supplemented with 10% fetal bovine serum, 2000 U/l of penicillin G, and 100 mg/l streptomycin. These cells were seeded to a 6-well plate at 2.5 ml/well, and cultured for 18 to 24 hours in a CO2 incubator at 37° C. in the presence of 5% CO2. 1 μg of each of the transcription factor expression plasmid, the luciferase reporter plasmid, and another luciferase reporter plasmid for normalizing the measured value (pRL-TK), were dissolved in Opti-MEM (Gibco BRL) to total of 150 μl. 7 μl of the cell transfection reagent LipofectAMINE 2000 (Gibco BRL) was diluted in 143 μl of Opti-MEM, and this was added to the mixture drop by drop while stirring. […]
Luciferase activity was measured using the Dual-Luciferase™ Reporter Assay System (Promega). […] The protocol for measurement was as follows: 50 μl of Luciferase Assay Reagent II was added to each well, stirred for 0.3 seconds and measured for one second.
On the technique in general: Reporter assays use an easily measured gene product as a stand-in for the process of interest.

ERRγ2, sequence (P62508 whole entry): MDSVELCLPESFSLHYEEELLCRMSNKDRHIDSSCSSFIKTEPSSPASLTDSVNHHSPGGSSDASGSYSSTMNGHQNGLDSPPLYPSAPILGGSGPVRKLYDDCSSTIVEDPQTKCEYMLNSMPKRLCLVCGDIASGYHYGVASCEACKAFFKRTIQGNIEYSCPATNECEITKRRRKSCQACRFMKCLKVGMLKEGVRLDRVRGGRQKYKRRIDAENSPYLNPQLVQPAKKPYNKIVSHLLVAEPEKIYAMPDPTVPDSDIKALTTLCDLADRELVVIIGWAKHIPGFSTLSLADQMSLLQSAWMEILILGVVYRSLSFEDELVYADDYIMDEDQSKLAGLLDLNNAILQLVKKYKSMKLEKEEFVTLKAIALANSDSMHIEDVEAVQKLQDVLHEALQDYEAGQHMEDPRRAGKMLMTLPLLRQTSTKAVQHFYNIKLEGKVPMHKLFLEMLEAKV

On to 4-hydroxytamoxifen [reference compound], for which the “binding to ERRγ1” value on ERRγ1 was “capable of binding”. Further, the “4-hydroxytamoxifen concentration at which the enhancing function of ERRγ3 on ERRγ2 was reduced” value with ERRγ2 (CV-1 cells, 24 hours exposure) is given as ≥ 10^−6 M.

B1: ERRγ3: novel ERRγ isoform, nuclear receptor protein of 396 amino acids (SEQ ID NO: 2) lacking part of the DNA binding domain (protein, listed as Homo sapiens)
chain: MSNKDRHIDSSCSSFIKTEPSSPASLTDSVNHHSPGGSSDASGSYSSTMNGHQNGLDSPPLYPSAPILGGSGPVRKLYDDCSSTIVEDPQTKCEYMLNSMPKRLCLVCGDIASGYHYGVASCEACKAFFKRTIQGVRLDRVRGGRQKYKRRIDAENSPYLNPQLAQPAKKPYNKIVSHLLVAEPEKIYAMPDPTVPDSDIKALTTLCDLADRELVVIIGWAKHIPGFSTLSLADQMSLLQSAWMEILILGVVYRSLSFEDELVYADDYIMDEDQSKLAGLLDLNNAILQLVKKYKSMKLEKEEFVTLKAIALANSDSMHIEDVEAVQKLQDVLHEALQDYEAGQHMEDPRRAGKMLMTLPLLRQTSTKAVQHFYNIKLEGKVPMHKLFLEMLEAKV
Consider B1, for which, in the test on ERRγ2 (ERRγ3 coexisted with ERRγ2, CV-1 cells, ERE luciferase reporter), the “enhancement of the transcriptional activation function of ERRγ2” value is 53-68%.
